According to patent publication US8158088B2, “Extractant compositions for co-extracting cesium and strontium, a method of separating cesium and strontium from an aqueous feed, and calixarene compounds” (Battelle Energy Alliance, LLC, priority 2008, dated 2012):

Key:
Format in all cases: physicochemical
[1] = Third phase formation on contact with nitric acid; conditions: 5 M HNO3; 0.025 M BOBCalixC6, 0.075 DtBuCH18C6, 0.003 M TOA, 0.75 M EXXAL 12 in ISOPAR L
[2] = Solvent stability: strontium distribution ratios as a function of contact time with 1.5 M HNO3
Description: (§1) The stability of the mixed extractant solvents prepared using dialkyloxycalix[4]arenebenzocrown-6 compounds (MC-8, MC-8B, MC-10, MC-10B, MC-12, or MC-12B) relative to BOBCalixC6 in the FPEX I process solvent was determined. Samples were prepared using each of the dialkyloxycalix[4]arenebenzocrown-6 compounds and contacted with 1.5 M HNO3. The samples included 0.007 M of the respective dialkyloxycalix[4]arenebenzo-crown-6 compound (MC-8, MC-8B, MC-10, MC-10B, MC-12, or MC-12B), 0.075 M DtBuCH18C6, 0.75 M Cs-7SB modifier, and 0.003 M TOA in ISOPAR® L. The stability of the dialkyloxycalix[4]arene-benzocrown-6 based solvents was evaluated by measuring the cesium and strontium distribution ratios as a function of contact time. These cesium and strontium distribution ratios for the mixed extractant solvents are presented in Table 9 and Table 10, respectively, along with the cesium and strontium distribution ratios for the FPEX I process solvent. The symbol “-” is used in Tables 9 and 10 to indicate no data was collected.
(§2) This degradation is likely due to chemical attack or nitration of the BOBCalixC6 in the FPEX I process solvent. […] However, it is difficult to compare the relative extents of degradation. In order to compare the different extractants, the distribution ratio data presented in Tables 9 and 10 were normalized to the values obtained at t=0 days contact. The normalized cesium and strontium distribution ratios for the FPEX I process solvent and the mixed extractant solvents as a function of contact time are presented in FIGS. 2 and 3, respectively.

[3] = Cesium distribution ratio (DCs), equilibrium batch contact of mixed extractant solvent with nitric acid feed; conditions: for Cesium distribution ratio, contact E1: first forward extraction, 1.5 M HNO3 feed simulant, 0.075 M DtBuCH18C6, 0.75 M Cs-7SB, 0.003 M TOA in ISOPAR L; for Cesium distribution ratio, contact E1 / Cesium distribution ratio, contact E2 / Cesium distribution ratio, contact E3: 25 °C; for Cesium distribution ratio, contact St1: first strip with 0.01 M HNO3, 35 °C; for Cesium distribution ratio, contact St1 / Cesium distribution ratio, contact E2 / Cesium distribution ratio, contact St2 / Cesium distribution ratio, contact E3: 0.007 M calixarene solvent; for Cesium distribution ratio, contact E2: second forward extraction; for Cesium distribution ratio, contact St2: second strip with 0.01 M HNO3, 35 °C; for Cesium distribution ratio, contact E3: third forward extraction
Text: The distribution of cesium and strontium between the first organic phase (the mixed extractant solvent including the dialkyloxycalix[4]arenebenzocrown-6 compound) and the first aqueous phase (aqueous feed) may be determined by conventional techniques. The distribution ratio for strontium (“DSr”) may be calculated as the ratio of organic phase activity to the aqueous phase activity at equilibrium. High values for the DSr indicate that the strontium is present predominantly in the organic phase while low values for the DSr indicate that the strontium is present predominantly in the aqueous phase. Similarly, the distribution ratio for cesium (“DCs”) may be calculated as the ratio of organic phase activity to the aqueous phase activity at equilibrium. High values for the DCs indicate that the cesium is present predominantly in the organic phase while low values for the DCs indicate that the cesium is present predominantly in the aqueous phase.
Distribution ratios (DM=[M]org/[M]aq) were measured by equilibrium batch contacts between the organic and aqueous phases at an organic-to-aqueous phase ratio (O/A) of unity (O/A=1). All distribution ratio measurements were conducted in a temperature controlled water bath at 25±1° C. The aqueous phase was of the appropriate HNO3 concentration, to which trace quantities (typically, less than 10^−7 M each) of the major radionuclides of interest (^137Cs, ^85Sr, ^154Eu, or ^241Am) were added. The organic and aqueous phases were contacted by vortex mixing for 1 minute. All batch contact experiments were performed at ambient temperature (from approximately 20° C. to approximately 25° C.) unless otherwise noted. Following extraction, the samples were centrifuged for 1 minute and the organic and aqueous phases separated by pipet or centrifugation. The distribution ratios (DSr, or DCs) were calculated as the ratio of the appropriate specific activities in the organic and aqueous phases as determined by γ-ray counting (gamma spectroscopy). The counting time was selected to provide less than approximately 1% statistical uncertainty.
(MC-8, MC-8B, MC-10, MC-10B, MC-12, or MC-12B), 0.075 M DtBuCH18C6, 0.75 M Cs-7SB modifier, and 0.003 M TOA in ISOPAR® L were evaluated for their respective abilities to simultaneously extract cesium and strontium from the aqueous feed simulant composition described in Table 2. The cesium and strontium distribution ratios of the mixed extraction solvents were compared to those of the FPEX I process solvent. The cesium extraction performance and strontium extraction performance of each of the mixed extractant solvents was determined using the batch contact flowsheet presented in FIG. 1, where “E1,” “E2,” and “E3” refer to three forward extraction acts: a first extraction act, a second extraction act, and a third extraction act, respectively, and “St1” and “St2” refer to two backward extraction acts: a first strip act and a second strip act, respectively. […] The aqueous feed 2 and the mixed extractant solvent 4 were combined in a vessel 6 to conduct the extraction. Two phases were formed during the extraction: the first organic phase and the first aqueous phase, with the cesium and strontium substantially distributed in the first organic phase.
The cesium and strontium distribution ratios for the mixed extractant solvents 4 were calculated for the first organic phase and are reported in Tables 3 and 4, respectively, as E1, along with the cesium and strontium distribution ratios for the FPEX I process solvent. The cesium and strontium were stripped from the first (and subsequent) organic phase to recover these radionuclides. For the strips or backward extractions, the first (and subsequent) organic phase was contacted with dilute acidic solution 8, which was 0.01 M HNO3. […]

[4] = Strontium distribution ratio (DSr), equilibrium batch contact of mixed extractant solvent with nitric acid feed; conditions: for Strontium distribution ratio, contact E1: first forward extraction, 1.5 M HNO3 feed simulant, 0.007 M calixarene, 0.075 M DtBuCH18C6, 0.75 M Cs-7SB, 0.003 M TOA in ISOPAR L; for Strontium distribution ratio, contact E1 / Strontium distribution ratio, contact E2 / Strontium distribution ratio, contact E3: 25 °C; for Strontium distribution ratio, contact St1: first strip with 0.01 M HNO3, 35 °C; for Strontium distribution ratio, contact St1 / Strontium distribution ratio, contact E2 / Strontium distribution ratio, contact St2 / Strontium distribution ratio, contact E3: 0.007 M calixarene solvent; for Strontium distribution ratio, contact E2: second forward extraction; for Strontium distribution ratio, contact E2 / Strontium distribution ratio, contact E3: 1.5 M HNO3 feed; for Strontium distribution ratio, contact St2: second strip with 0.01 M HNO3, 35 °C; for Strontium distribution ratio, contact E3: third forward extraction
[5] = Solvent stability: cesium distribution ratios as a function of contact time with 1.5 M HNO3
Description: as §1, §2

[6] = contact time 0 days with 1.5 M HNO3, 0.007 M calixarene, 0.075 M DtBuCH18C6, 0.75 M Cs-7SB, 0.003 M TOA in ISOPAR L
[7] = contact time 36 days with 1.5 M HNO3
[8] = contact time 244 days with 1.5 M HNO3
[9] = contact time 278 days with 1.5 M HNO3
[10] = contact time 34 days with 1.5 M HNO3
[11] = contact time 70 days with 1.5 M HNO3

| Compound | Cesium distribution ratio, contact E1 ([3]; 0.007 M calixarene) | Cesium distribution ratio, contact St1 [3] | Cesium distribution ratio, contact E2 ([3]; 1.5 M HNO3 feed) | Cesium distribution ratio, contact St2 [3] | Cesium distribution ratio, contact E3 ([3]; 1.5 M HNO3 feed) | Strontium distribution ratio as a function of contact time [2, 6] | Strontium distribution ratio as a function of contact time [2, 7] | Strontium distribution ratio as a function of contact time [2, 8] | Strontium distribution ratio, contact E1 [4] | Strontium distribution ratio, contact St1 [4] | Strontium distribution ratio, contact E2 [4] | Strontium distribution ratio, contact St2 [4] | Strontium distribution ratio, contact E3 [4] | Cesium distribution ratio as a function of contact time [5, 6] | Cesium distribution ratio as a function of contact time [5, 7] | Cesium distribution ratio as a function of contact time [5, 8] | Cesium distribution ratio as a function of contact time [5, 9] | Strontium distribution ratio as a function of contact time [2, 10] | Strontium distribution ratio as a function of contact time [2, 11] | Strontium distribution ratio as a function of contact time [2, 9] | further results |
| --- | --- | --- | --- | --- | --- | --- | --- | --- | --- | --- | --- | --- | --- | --- | --- | --- | --- | --- | --- | --- | --- |
| CC(C)(C)CC(C)(C)c1ccc2c(c1)OCCOCCOc1c3cccc1Cc1cccc4c1OCCOCCOc1cc(C(C)(C)CC(C)(C)C)ccc1OCCOCCOc1c(cccc1C3)Cc1cccc(c1OCCOCCO2)C4 [BOBCalixC6, calix[4]arene-bis(tert-octylbenzo)-crown-6, reference compound] |  |  |  |  |  |  |  |  |  |  |  |  |  |  |  |  |  |  |  |  | third phase formation [1]: Third phase formation was observed |
| 4′,4′,(5′)-di-(t-butyldicyclohexano)-18-crown-6 [DtBuCH18C6, reference compound] |  |  |  |  |  |  |  |  |  |  |  |  |  |  |  |  |  |  |  |  | stability (normalized strontium distribution ratios, FIG. 3) ([2]; prolonged contact with HNO3): subject to degradation following prolonged contact with HNO3 |
| CCCCCCCCCCCCOc1c2cccc1Cc1cccc3c1OCCOCCOc1ccccc1OCCOCCOc1c(cccc1Cc1cccc(c1OCCCCCCCCCCCC)C3)C2 [MC-12, 1,3-alternate-25,27-di(dodecyloxy)calix[4]arenebenzocrown-6] | 2.9 | 0.4 | 1.7 | 0.2 | 1.3 | 7.5 | 7.1 | 6.1 | 7.7 | 0.04 | 7.5 | 0.01 | 7.0 | 3.0 | 2.5 | 2.2 | 2.8 |  |  |  |  |
| CCCCC(CC)COc1c2cccc1Cc1cccc3c1OCCOCCOc1ccccc1OCCOCCOc1c(cccc1Cc1cccc(c1OC[C@H](CC)CCCC)C3)C2 (stereo partly shown) [MC-8B, 1,3-alternate-25,27-di(2-ethylhexyl-1-oxy)calix[4]arenebenzocrown-6] | 1.4 | 0.2 | 1.1 | 0.1 | 1.0 | 8.9 |  |  | 8.9 | 0.06 | 8.3 | 0.01 | 8.1 | 1.36 |  |  | 2.8 | 7.2 | 9.3 | 7.6 | cesium distribution ratios, comparison in words ([3]; 0.007 M calixarene, 1.5 M HNO3 feed): lowest distribution ratios; Cesium distribution ratio as a function of contact time [5, 10]: 0.8; Cesium distribution ratio as a function of contact time [5, 11]: 1.5; stability toward hydrolytic degradation (normalized cesium distribution ratios, FIG. 2) ([5]; prolonged contact with 1.5 M HNO3): most resistant toward hydrolytic degradation |
| CCCCC(CCCC)CCCOc1c2cccc1Cc1cccc3c1OCCOCCOc1ccccc1OCCOCCOc1c(cccc1Cc1cccc(c1OCCCC(CCCC)CCCC)C3)C2 [MC-12B, 1,3-alternate-25,27-di(4-butyloctyl-1-oxy)calix[4]arenebenzocrown-6] | 2.5 | 0.4 | 1.3 | 0.2 | 1.1 | 6.3 | 6.9 | 5.7 | 7.7 | 0.03 | 6.7 | 0.02 | 6.3 | 3.3 | 2.1 | 1.8 |  |  |  |  |  |
| CCCCCCCCCCOc1c2cccc1Cc1cccc3c1OCCOCCOc1ccccc1OCCOCCOc1c(cccc1Cc1cccc(c1OCCCCCCCCCC)C3)C2 [MC-10, 1,3-alternate-25,27-di(decyloxy)calix[4]arenebenzocrown-6] | 3.7 | 0.5 | 2.0 | 0.2 | 1.6 | 9.5 |  |  | 9.5 | 0.06 | 8.4 | 0.01 | 8.3 | 3.7 |  |  | 1.1 | 7.7 | 9.0 | 7.7 | Cesium distribution ratio as a function of contact time [5, 10]: 3.0; Cesium distribution ratio as a function of contact time [5, 11]: 3.5 |
